Literature values, collected in patent US20210350875A1, “HIGH THROUGHPUT METHOD AND SYSTEM FOR MAPPING INT[…] DIAGRAMS” (The Trustees of Princeton University, priority 2018, published 2021).

System: phase separation
Details: positive control agent, 10 wells, FIG. 2B

For hexanediol, the “inhibition of phase separation” value is given as “fully inhibit phase separation”.
